Laboratory results from patent publication US20240122930A1, “INTEGRIN INHIBITORS AND USES THEREOF IN COMBINATION WITH OTHER AGENTS” (Pliant Therapeutics, Inc., priority 2022, published 2024).
Entries after “also recorded” stand apart in the source; their conditions may differ. Blank lines part the entries; values can stand above or below the molecule they belong to.

Legend:
[1] = tested on: participants with idiopathic pulmonary fibrosis (IPF); details: FIG. 26, histograms from left to right; from USPI or literature; cited from earlier work
[2] = target: recombinant human integrin αVβ6 (Homo sapiens, UniProt P06756+P18564); assay: Solid phase integrin αVβ6 binding assay; details: TGFβ1 LAP, values presented in four ranges, read-out: αvβ6 Inhibition IC50 (nM)-range
Sequence of recombinant human integrin αVβ6 (P06756 31-992 limits assumed): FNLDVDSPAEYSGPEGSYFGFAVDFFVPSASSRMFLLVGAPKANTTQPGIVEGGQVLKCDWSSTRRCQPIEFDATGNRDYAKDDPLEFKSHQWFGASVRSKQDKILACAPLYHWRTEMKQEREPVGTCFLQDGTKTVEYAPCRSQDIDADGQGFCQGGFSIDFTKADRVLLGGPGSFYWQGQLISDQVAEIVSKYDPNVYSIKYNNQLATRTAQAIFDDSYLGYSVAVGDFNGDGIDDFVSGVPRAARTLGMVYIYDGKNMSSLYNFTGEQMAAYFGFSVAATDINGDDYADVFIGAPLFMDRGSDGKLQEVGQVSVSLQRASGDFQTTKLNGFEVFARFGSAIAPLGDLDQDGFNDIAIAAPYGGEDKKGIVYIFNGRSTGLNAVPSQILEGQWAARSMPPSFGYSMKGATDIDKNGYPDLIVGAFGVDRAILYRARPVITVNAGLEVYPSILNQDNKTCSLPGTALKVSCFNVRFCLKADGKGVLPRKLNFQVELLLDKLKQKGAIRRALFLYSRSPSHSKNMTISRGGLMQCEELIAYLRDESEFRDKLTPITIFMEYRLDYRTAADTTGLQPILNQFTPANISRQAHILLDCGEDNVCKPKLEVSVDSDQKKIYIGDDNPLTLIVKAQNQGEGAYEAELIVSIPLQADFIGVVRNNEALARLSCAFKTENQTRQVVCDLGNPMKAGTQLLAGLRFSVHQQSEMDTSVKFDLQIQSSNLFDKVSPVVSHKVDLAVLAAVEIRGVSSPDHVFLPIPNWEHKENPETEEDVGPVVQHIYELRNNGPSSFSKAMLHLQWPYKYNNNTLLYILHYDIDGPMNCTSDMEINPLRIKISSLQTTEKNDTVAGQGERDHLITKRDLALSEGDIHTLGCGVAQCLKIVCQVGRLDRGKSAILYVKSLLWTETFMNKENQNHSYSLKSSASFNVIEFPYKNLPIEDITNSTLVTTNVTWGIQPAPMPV
Sequence of recombinant human integrin αVβ6 (P18564 22-707 limits assumed): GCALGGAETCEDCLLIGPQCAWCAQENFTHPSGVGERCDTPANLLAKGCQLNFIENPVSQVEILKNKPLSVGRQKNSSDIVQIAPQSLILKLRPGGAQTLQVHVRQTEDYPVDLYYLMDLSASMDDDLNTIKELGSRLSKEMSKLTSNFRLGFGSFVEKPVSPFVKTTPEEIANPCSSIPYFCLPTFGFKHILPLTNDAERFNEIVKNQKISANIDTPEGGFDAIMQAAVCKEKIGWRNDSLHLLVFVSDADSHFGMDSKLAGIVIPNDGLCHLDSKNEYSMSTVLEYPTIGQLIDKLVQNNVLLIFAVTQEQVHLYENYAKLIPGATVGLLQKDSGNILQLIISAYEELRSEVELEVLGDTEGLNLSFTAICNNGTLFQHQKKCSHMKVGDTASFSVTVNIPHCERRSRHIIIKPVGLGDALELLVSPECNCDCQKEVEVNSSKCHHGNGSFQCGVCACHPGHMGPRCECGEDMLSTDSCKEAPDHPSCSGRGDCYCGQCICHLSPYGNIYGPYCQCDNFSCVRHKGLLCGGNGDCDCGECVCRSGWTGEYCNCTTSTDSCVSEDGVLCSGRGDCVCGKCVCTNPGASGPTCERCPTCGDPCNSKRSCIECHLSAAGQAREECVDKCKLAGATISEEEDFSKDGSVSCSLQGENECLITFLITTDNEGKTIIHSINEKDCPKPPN
Description: Microplates were coated with recombinant human integrin αVβ6 (2 μg/mL) in PBS (100 μL/well 250 C, overnight). The coating solution was removed, washed with wash buffer (0.05% Tween 20; 0.5 mM MnCl2; in 1×TBS). The plate was blocked with 200 μL/well of Block Buffer (1% BSA; 5% sucrose; 0.5 mM MnCl2; in 1×TBS) at 370 C for 2 h. Dilutions of testing compounds and recombinant TGFβ1 LAP (0.67 μg/mL) in binding buffer (0.05% BSA; 2.5% sucrose; 0.5 mM MnCl2; in 1×TBS) were added. The plate was incubated for 2 hours at 250 C, washed, and incubated for 1 hour with Biotin-Anti-hLAP. Bound antibody was detected by peroxidase-conjugated streptavidin. The IC50 values for testing compounds were calculated by a four-parameter logistic regression.
The compounds tested were compound samples prepared according to procedures described in the Synthetic Examples section, with the stereochemical purity as indicated in the Examples.
A third series of exemplary compounds was selected for testing in the solid phase integrin αVβ6 binding assay. The compounds tested were compound samples prepared according to procedures described in the Synthetic Examples section, with the stereochemical purity as indicated in the Examples. […] Bound antibody was detected by peroxidase-conjugated streptavidin. The IC50 values for testing compounds were calculated by a four-parameter logistic regression.

COL1A1 expression = assay: Precision cut lung slices from human IPF explants, COL1A1 expression; format: cell-based; details: human IPF PCLS; for expression of COL1A1: 7 days, treatment alone: nintedanib 75 nM, pirfenidone 50 μM
Source text: Explanted lung tissue was obtained from human IPF subjects and inflated with agarose as described in the preceding examples. Biopsy cores were obtained from the agarose-inflated lung tissue. The biopsy cores were subjected to precision slicing to obtain several hundred μm thick. Individual slices were distributed in a multiwell culture plate and cultured for […] under control (DMSO) and test compound conditions. The viability of the slices over the course of culturing was confirmed by WST-1 assay of mitochondrial activity.
PCLS from 5-7 idiopathic pulmonary fibrosis (IPF) lung tissue samples were cultured for seven days with one of: DMSO; Compound 5 at 200 nM; nintedanib at 75 nM; pirfenidone at 50 μM; a combination of Compound 5 at 200 nM and nintedanib at 75 nM; a combination of Compound 5 at 200 nM and pirfenidone at 50 μM; or an ALK5 inhibitor at 1 μM. […] FIG. 6D is a bar graph showing relative expression of COL1A1 in precision cut lung slices (PCLS) from idiopathic pulmonary fibrosis (IPF) lung tissue upon exposure to Compound 5, clinical standard of care compounds nintedanib (Nin) and pirfenidone (Pirf), and an ALK5 inhibitor, all versus DMSO control.
PCLS from a single IPF lung tissue sample were cultured for seven days with Compound 5 at concentrations of 200 pM, 2 nM, 60 nM, 200 nM, and 1 μM, along with 0.1% DMSO control and an ALK5 inhibitor at 1 μM. […] COL1A1 expression is also graphed for the PCLS in the presence of 0.1% DMSO control, and an ALK5 inhibitor at 1 μM.

[3] = tested on: explanted human lung tissue from patients with idiopathic pulmonary fibrosis; assay: Fibrosis-related gene expression (nCounter Fibrosis Panel) in precision cut lung slices; format: cell-based
Source text: Briefly, tissue samples from patients with IPF were acquired at the time of lung transplantation. […] Treated slices were lysed in mRNA-compatible buffer for gene expression analysis. For this study, the lysate from n=6 slices per treatment per lung were pooled for analysis using the nCounter Fibrosis Panel (Nanostring) on the nCounter Max analyzer (Nanostring). This commercially available panel of 770 genes includes genes related to initial tissue damage response, chronic inflammation, proliferation of pro-fibrotic cells, and tissue modification leading to fibrotic disease. Technical quality control and normalization of raw Nanostring mRNA count data was performed using an R framework developed by Bhattacharya et al. (Bhattacharya A. et al., Brief Bioinform. 2021 May 20; 22(3):bbaa163; herein incorporated by reference in its entirety). The R packages limma (see URL www.bioconductor.org/packages/release/bioc/html/limma.html, which is incorporated herein by reference in its entirety) and voom (Law, C.

lung Col1a1 expression [4] = assay: Precision cut lung slices, chronic bleomycin exposure, versus and with nintedanib and pirfenidone; format: cell-based, mice (C57BL/6); details: chronic bleomycin PCLS, 7 days culture, single agents
Description: Mice (C57BL/6) were administered 3 U/kg of bleomycin (Teva Pharmaceuticals; North Wales, PA) on Day 0 and 1 U/kg of bleomycin on days 14, 28, 42 and 56 via oropharyngeal aspiration while under anesthesia. At day 70, 14 days following the final bleomycin insult, precision cut lung slices were obtained. […] The lobes were then subjected to precision slicing to obtain samples for culture using a microtome (Compresstome VF-300-OZ, Precisionary; Greenville, NC). Individual slices were distributed in a multiwell culture plate and cultured for 7 days under control (DMSO) and test compound conditions. The viability of the slices over the course of culturing was confirmed by WST-1 assay of mitochondrial activity. During the culture period, slices in the control group were treated with DMSO and slices in the test group were treated with a DMSO solution of one of: […]

[5] = tested on: Type I Collagen gene Col1a1 expression; assay: Precision cut lung slices, acute bleomycin exposure, Col1a1 expression; format: cell-based, mice (C57BL/6); details: acute bleomycin PCLS, 3 days culture; integrin inhibitors at IC50 for TGF-beta activation, pan-αV and ALK5 inhibitors at 10× IC50
lung Col1a1 expression [6] = assay: Precision cut lung slices, chronic bleomycin exposure, Col1a1 expression; format: cell-based, mice (C57BL/6); details: chronic bleomycin PCLS, 7 days culture
Description: Mice (C57BL/6) were administered 3 U/kg of bleomycin (Teva Pharmaceuticals; North Wales, PA) on Day 0 and 1 U/kg of bleomycin on days 14, 28, 42 and 56 via oropharyngeal aspiration while under anesthesia. At day 70, 14 days after the final bleomycin insult, precision cut lung slices were obtained. […] The lobes were then subjected to precision slicing to obtain samples for culture using a microtome (Compresstome VF-300-OZ, Precisionary; Greenville, NC). Individual slices were distributed in a multiwell culture plate and cultured for 7 days under control (DMSO) and test compound conditions. The viability of the slices over the course of culturing was confirmed by WST-1 assay of mitochondrial activity. […] Compound 5; and the small molecule ALK5 inhibitor. […] Compound 5 was run at approximate IC50 for inhibition of TGF-beta activation by αVβ6.

[7] = single treatment, adj. p-value <0.05

Compound: [O-][S+]1CCc2nc(N3CCC(c4ncc(Cl)cn4)CC3)nc(NC3(CO)CCC3)c21 (stereo not shown) [BI 1015550]
% Incidence of Diarrhea in IPF Clinical Trials [1]: 17%

IC50 [2]: < 50 nM
Compound: COCCN(CCCCc1ccc2c(n1)NCCC2)CCC(Nc1ncnc2cnccc12)C(=O)O (stereo not shown) [Compound 17, 4-((2-methoxyethyl)(4-(5,6,7,8-tetrahydro-1,8-naphthyridin-2-yl)butyl)amino)-2-(pyrido[3,4-d]pyrimidin-4-ylamino)butanoic acid]

logFC CYP2J2 [3, 7]: 1.025
Compound: COC(=O)c1ccc2c(c1)NC(=O)/C2=C(\Nc1ccc(N(C)C(=O)CN2CCN(C)CC2)cc1)c1ccccc1 [nintedanib, 3-Z-[1-(4-(N-((4-methyl-piperazin-1-yl)-methylcarbonyl)-N-methyl-amino)-anilino)-1-phenyl-methylene]-6-methoxycarbonyl-2-indolinone, reference compound]
expression of COL1A1 (COL1A1 expression): did not significantly reduce
Genes up-regulated, Venn region G (FIG. 24) ([3]; IPF precision cut lung slices, 7 days, only altered by nintedanib in the absence of Compound 5): ACTA2 and CCL19 and COL6A5 and ELN and IGF1 and PYGM
lung Col1a1 expression vs DMSO vehicle control slices (lung Col1a1 expression [4]): slight increase

Compound: Cc1ccc(=O)n(-c2ccccc2)c1 [pirfenidone, 5-methyl-1phenyl-2-1(H)-pyridone, reference compound]
expression of COL1A1 (COL1A1 expression): did not significantly reduce
Genes Down-regulated with Compound 5 and Pirfenidone Alone or in Combination, region F ([3]; FIG. 24 Venn region F: altered by Compound 5 or pirfenidone alone, but not by Compound 5 in combination with pirfenidone): CXCR4; also recorded: PECAM1
Genes Up-regulated with Compound 5 and Pirfenidone Alone or in Combination, region G ([3]; FIG. 24 Venn region G: only altered by pirfenidone in the absence of Compound 5): COL7A1 and MMP7 and PTGS2
logFC KNG1 [3, 7]: −1.1
lung Col1a1 expression vs DMSO vehicle control slices (lung Col1a1 expression [4]): slight increase

Compound: CC(C)(C)c1cc(Br)cc([C@H](CC(=O)O)NC(=O)CNC(=O)c2cc(O)cc(NC3=NCC(O)CN3)c2)c1 (stereo partly drawn) [second pan-αV small molecule inhibitor, (3S)—N-[3-hydroxy-5-[(1,4,5,6-tetrahydro-5-hydroxy-2-pyrimidinyl)amino]benzoyl]glycyl-3-[3-bromo-5-(1,1-dimethylethyl)phenyl]-β-alanine]
Type I Collagen gene Col1a1 expression, normalized to DMSO control slices [5]: decreased Type I Collagen gene Col1a1 expression comparably

Compound: Cc1cccc(-c2n[nH]cc2-c2ccc(F)c(-c3cnn(CCO)c3)c2)n1 [small molecule ALK5 inhibitor, 4-[2-Fluoro-5-[3-(6-methyl-2-pyridinyl)-1H-pyrazol-4-yl]phenyl]-1H-pyrazole-1-ethanol, reference compound]
Type I Collagen gene Col1a1 expression, normalized to DMSO control slices [5]: greatest decrease
lung Col1a1 expression, normalized to DMSO control slices (COL1A1 expression; 3 days, 3G9 ≥400 ng/mL, Compound 5 179 nM, ALK5 inhibitor 1 μM): decrease in lung Col1a1 expression
lung Col1a1 expression, normalized to DMSO control slices (lung Col1a1 expression [6]): greatest decrease
lung Col1a1 expression vs DMSO vehicle control slices (lung Col1a1 expression [4]): substantial, statistically significant (p<0.0001 vs vehicle) decrease
